# Data published in US20090118331A1, “Use of Lobeline Epimers in the Treatment of Central Nervous System Diseases, Pathologies, and Drug Abuse” (priority 2007, published 2009).
# Where “and” joins values, the source holds several entries; their conditions need not be identical. Identical values can stand only once.
# Experiments:
# [1] = in vivo; details: for AUC(0-inf) / AUC(0-t) / Cmax / MRT last / Tmax / Vd / clearance / half-life: rat, in vivo
# Method: Here, serial doses of lobeline were administered to male and female rats intravenously, subcutaneously or orally, and the pharmacokinetic profiles of the parent lobeline and its epimer were monitored in plasma.
# [2] = Pharmacokinetics of lobeline and epimer in human subjects after sublingual lobeline administration (7.5, 15, 30 mg); details: for CL/F (extravascular clearance): epimer
# Excerpt: The pharmacokinetics of lobeline and lobeline epimer were examined in eight human subjects (Sub) after sublingual lobeline administration.
# [3] = epimer in plasma, individual human subjects, sublingual lobeline 7.50 mg
# [4] = epimer in plasma, individual human subjects, sublingual lobeline 15.0 mg
# [5] = epimer in plasma, individual human subjects, sublingual lobeline 30.0 mg
structure (smiles),measurement,setting,value
"CN1[C@H](CC(=O)c2ccccc2)CCC[C@H]1C[C@H](O)c1ccccc1 (single isomer, unassigned; epimer 2) [Epimer, 2-[6S-(2S-hydroxy-2-phenyl-ethyl)-1-methyl-piperidin-2S-yl]-1-phenyl-ethanone]",AUC(0-inf),"[1]; female, iv, 2 mg/kg",76.9 ng·h/mL
same,AUC(0-t),"[1]; female, iv, 2 mg/kg",75.4 ng·h/mL
same,Cmax,"[1]; female, iv, 2 mg/kg",53.9 ng/mL
same,MRT last,"[1]; female, iv, 2 mg/kg",1.6 h
same,Tmax,"[1]; female, iv, 2 mg/kg",0.25 h
same,Vd,"[1]; female, iv, 2 mg/kg",45.9 L/kg
same,clearance,"[1]; female, iv, 2 mg/kg",0.433 mL/min/kg
same,half-life,"[1]; female, iv, 2 mg/kg",1.47 h
same,AUC(0-inf),"[1]; female, po, 20 mg/kg",40.9 ng·h/mL
same,AUC(0-t),"[1]; female, po, 20 mg/kg",39.3 ng·h/mL
same,Cmax,"[1]; female, po, 20 mg/kg",23.8 ng/mL
same,MRT last,"[1]; female, po, 20 mg/kg",2.16 h
same,Tmax,"[1]; female, po, 20 mg/kg",0.5 h
same,half-life,"[1]; female, po, 20 mg/kg",1.71 h
same,AUC(0-inf),"[1]; female, sc, 3 mg/kg",128 ng·h/mL
same,AUC(0-t),"[1]; female, sc, 3 mg/kg",127 ng·h/mL
same,Cmax,"[1]; female, sc, 3 mg/kg",85 ng/mL
same,MRT last,"[1]; female, sc, 3 mg/kg",1.5 h
same,Tmax,"[1]; female, sc, 3 mg/kg",0.5 h
same,half-life,"[1]; female, sc, 3 mg/kg",1.11 h
same,AUC(0-inf),"[1]; male, iv, 2 mg/kg",69.7 ng·h/mL
same,AUC(0-t),"[1]; male, iv, 2 mg/kg",68.7 ng·h/mL
same,Cmax,"[1]; male, iv, 2 mg/kg",47.6 ng/mL
same,MRT last,"[1]; male, iv, 2 mg/kg",1.51 h
same,Tmax,"[1]; male, iv, 2 mg/kg",0.25 h
same,Vd,"[1]; male, iv, 2 mg/kg",46.3 L/kg
same,clearance,"[1]; male, iv, 2 mg/kg",0.48 mL/min/kg
same,half-life,"[1]; male, iv, 2 mg/kg",1.26 h
same,AUC(0-inf),"[1]; male, po, 20 mg/kg",54.8 ng·h/mL
same,AUC(0-t),"[1]; male, po, 20 mg/kg",54 ng·h/mL
same,Cmax,"[1]; male, po, 20 mg/kg",49.8 ng/mL
same,MRT last,"[1]; male, po, 20 mg/kg",1.73 h
same,Tmax,"[1]; male, po, 20 mg/kg",0.5 h
same,half-life,"[1]; male, po, 20 mg/kg",1.32 h
same,AUC(0-inf),"[1]; male, sc, 3 mg/kg",109 ng·h/mL
same,AUC(0-t),"[1]; male, sc, 3 mg/kg",108 ng·h/mL
same,Cmax,"[1]; male, sc, 3 mg/kg",54.4 ng/mL
same,MRT last,"[1]; male, sc, 3 mg/kg",1.45 h
same,Tmax,"[1]; male, sc, 3 mg/kg",0.5 h
same,half-life,"[1]; male, sc, 3 mg/kg",1.11 h
same,time after lobeline administration within which significant epimer concentrations were achieved in plasma,"[1]; rats, irrespective of dose or route",15 to 30 min
same,dose linearity of Cmax and CL/F,"[2]; dose range from 7.5 to 30 mg, sublingual, human",Linear kinetics
same,AUC(0-∞),[2]; [3],11.92 ng·h/mL
same,AUCext (percent of AUC(0-∞) determined by extrapolation),[2]; [3],40.22% and 37.47% and 21.02% and 13.37% and 29.10% and 11.02% and 21.05% and 22.14%
same,Tlast (time of last measurable plasma concentration),[2]; [3],2.00 hr and 3.00 hr (4×) and 6.00 hr and 12.00 hr and 4.00 hr
same,λz (terminal exponential rate constant),[2]; [3],0.6868 h⁻¹ and 0.3858 h⁻¹ and 0.6119 h⁻¹ and 0.3882 h⁻¹ and 0.531 h⁻¹ and 0.2004 h⁻¹ and 0.6101 h⁻¹ and 0.489 h⁻¹
same,AUC(0-∞),[2]; [4],24.30 ng·h/mL
same,AUCext (percent of AUC(0-∞) determined by extrapolation),[2]; [4],10.70% and 12.80% and 22.39% and 5.75% and 10.95% and 14.68% and 8.64% and 8.10%
same,Tlast (time of last measurable plasma concentration),[2]; [4],4.17 hr and 4.00 hr (3×) and 8.00 hr and 11.00 hr and 4.03 hr and 6.00 hr
same,λz (terminal exponential rate constant),[2]; [4],0.6055 h⁻¹ and 0.6196 h⁻¹ and 0.4338 h⁻¹ and 0.3591 h⁻¹ and 0.684 h⁻¹ and 0.1908 h⁻¹ and 0.7266 h⁻¹ and 0.5175 h⁻¹
same,AUC(0-t),[2]; [5],83.89 ng·h/mL and 20.12 ng·h/mL and 87.17 ng·h/mL
same,AUCext (percent of AUC(0-∞) determined by extrapolation),[2]; [5],3.89% and 10.44% and 5.56% and 15.37% and 11.12% and 3.26% and 7.85% and 5.01%
same,Tlast (time of last measurable plasma concentration),[2]; [5],6.00 hr (2×) and 4.00 hr (3×) and 8.00 hr (2×) and 22.75 hr
same,λz (terminal exponential rate constant),[2]; [5],0.6184 h⁻¹ and 0.6931 h⁻¹ and 0.5281 h⁻¹ and 0.25 h⁻¹ and 0.7194 h⁻¹ and 0.1513 h⁻¹ and 0.8194 h⁻¹ and 0.3741 h⁻¹
same,CL/F (extravascular clearance),"[2]; individual human subjects, sublingual lobeline 7.50 mg",282.7 mL/min/kg and 110.1 mL/min/kg and 240.7 mL/min/kg and 70.7 mL/min/kg and 159.2 mL/min/kg and 17.4 mL/min/kg and 225.5 mL/min/kg and 144.2 mL/min/kg
same,CL/F (extravascular clearance),"[2]; individual human subjects, sublingual lobeline 15.0 mg",188.2 mL/min/kg and 120.8 mL/min/kg and 161.7 mL/min/kg and 56.2 mL/min/kg and 175.6 mL/min/kg and 14.5 mL/min/kg and 180.2 mL/min/kg and 97.3 mL/min/kg
same,CL/F (extravascular clearance),"[2]; individual human subjects, sublingual lobeline 30.0 mg",153.7 mL/min/kg and 184.5 mL/min/kg and 146.9 mL/min/kg and 55.5 mL/min/kg and 285.9 mL/min/kg and 13.7 mL/min/kg and 259.4 mL/min/kg and 74.9 mL/min/kg
same,ratio of the cumulative amount of urinary epimer to lobeline,"[2]; human subjects, sublingual lobeline",approximately 0.5
same,Combined urinary excretion of lobeline and epimer,"[2]; human, in vivo",≤ 0.5%
same,AUC(0-inf),"[2]; human, in vivo, 7.5 mg, epimer in plasma, individual human subjects, sublingual lobeline 7.50 mg",13.2 ng·h/mL
same,AUC(0-inf),"[2]; human, in vivo, 15 mg, epimer in plasma, individual human subjects, sublingual lobeline 15.0 mg",17.3 ng·h/mL
same,AUC(0-inf),"[2]; human, in vivo, 30 mg, epimer in plasma, individual human subjects, sublingual lobeline 30.0 mg",91.8 ng·h/mL
same,half-life,"[2]; human, in vivo, 30 mg, Terminal exponential phase half-life (T1/2), average",~1.7 h
same,half-life,"[2]; human, in vivo, 30 mg, Terminal exponential phase half-lives (T1/2 values), range",1 to 5 h
same,Tmax,"[2]; human, in vivo, 30 mg, Tmax values, range",0.25 to 3 h
same,Tmax,"[2]; human, in vivo, 30 mg, Tmax, average",1.3 h
